Data reported in patent US9518065B2, “IRAK inhibitors and uses thereof” (NIMBUS IRIS, INC., priority 2013, dated 2016).
Read-outs that look alike come from different tables or passages of the source.

Tests used:
IRAK4 = target: T1, IRAK4 (Homo sapiens, UniProt Q9NWZ3); experiment: IRAK-4 activity inhibition assay (Caliper); format: biochemical; details: 3.5 nM IRAK4, 37 μM ATP, 1.5 μM Peptide 8
T1 construct: purchased CARNA Bioscience 09-145
T1 sequence (Q9NWZ3 1-460): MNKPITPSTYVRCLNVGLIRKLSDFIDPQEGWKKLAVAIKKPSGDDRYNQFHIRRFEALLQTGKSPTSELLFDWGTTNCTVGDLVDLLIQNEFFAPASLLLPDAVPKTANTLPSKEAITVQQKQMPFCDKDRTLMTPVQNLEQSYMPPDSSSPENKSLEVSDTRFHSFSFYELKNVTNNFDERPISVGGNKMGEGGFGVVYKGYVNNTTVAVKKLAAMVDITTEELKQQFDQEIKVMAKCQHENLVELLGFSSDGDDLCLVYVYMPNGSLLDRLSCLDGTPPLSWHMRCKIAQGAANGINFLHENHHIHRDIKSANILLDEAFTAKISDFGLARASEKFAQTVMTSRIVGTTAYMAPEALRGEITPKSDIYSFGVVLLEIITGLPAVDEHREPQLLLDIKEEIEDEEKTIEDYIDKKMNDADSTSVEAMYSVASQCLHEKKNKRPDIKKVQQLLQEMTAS
Experimental: A 1× kinase base buffer was prepared from 50 mM HEPES, pH 7.5 and 0.0015% Brij-35. A stop buffer was prepared from 100 mM HEPES, pH 7.5, 0.015% Brij-35, 0.2% Coating Reagent #3, and 50 mM EDTA.
Test compound was diluted to 50× of the final desired highest inhibitor concentration in reaction by 100% DMSO. 100 ul of this compound dilution was transferred to a well in a 96-well plate. For example, if desired highest inhibitor concentration in IC50 determination is 100 uM, then prepare 5000 uM of compound DMSO solution in this step.
Test compound was serially diluted by transferring 30 μl to 60 μl of 100% DMSO in the next well and so forth for a total of 10 concentrations. 100 μl of 100% DMSO was added to two empty wells for no compound control and no enzyme control in the same 96-well plate.
A new 96-well plate was marked as intermediate plate. 5 μl of compound serial dilution was transferred from source plate to the corresponding wells of the intermediate plate. 45 μl of 1× kinase base buffer (KB buffer) was added to each well of the intermediate plate. The intermediate plate was placed for 10 min on a shaker.
5 μl of each well was transferred from the 96-well intermediate plate to a 384-well plate in duplicates. For example, A1 of the 96-well plate is transferred to A1 and A2 of the 384-well plate. A2 of the 96-well plate is transferred to A3 and A4 of the 384-well plate, and so on.
IRAK4 and DTT in 1× kinase base buffer was added. The 2.5× enzyme mix contained 8.8 nM IRAK4 and 5 mM DTT.
Peptide 8, ATP, MgCl2 and MnCl2 were added in the 1× kinase base buffer. The 2.5× peptide mix contained 3.75 μM peptide 8, 92.5 μM ATP, 12.5 mM MgCl2 and 2.5 mM MnCl2.
Assay plate already contained 5 μl of compound in 10% DMSO. Added 10 μl of 2.5× enzyme solution to each well of the 384-well assay plate, except no enzyme control wells. The final concentration of IRAK4 in reaction was 3.5 nM. Added 10 μl of 1× kinase base buffer to no enzyme control wells in the assay plate. Incubated at room temperature for 10 min.
Added 10 μl of 2.5× peptide solution to each well of the 384-well assay plate. The final concentration of Peptide 8 and ATP was 1.5 μM and 37 μM, respectively. Incubated at 28° C. for 40 minutes. Added 25 μl of stop buffer to stop reaction. Collected data on Caliper.
Copied conversion % data from Caliper program. Converted conversion % values to percent inhibition values. Percent inhibition=(max-conversion %)/(max-min)*100, where “max” means the conversion % of DMSO control and “min” means the conversion % of no enzyme control.
The compound numbers correspond to the compound numbers in Table 1. Compounds having an activity designated as “A” provided an IC50≦1 μM; compounds having an activity designated as “B” provided an IC50 of 1-5 μM; compounds having an activity designated as “C” provided an IC50 of ≧5 μM. “NA” stands for “not assayed.”

[1] = system: TNFα and IL8 production in THP-1 cells; experiment: LPS induced cytokine (TNFα and IL8) production assay in THP-1 cells; format: cell-based; details: Homo sapiens, 300 ng/mL LPS
Experimental: Provided compounds were also assayed in an LPS (Lipopolysacharide) or R848 (TLR-7 agonist) induced cytokine (TNFα and IL8) production assay in THP-1 cells, human white blood cells (hWBC), and whole blood. The exemplary protocol for this assay in THP-1 cells was as follows below.
THP-1 cells from ATCC (TIB-202) were cultured in RPMI Medium 1640 (Invitrogen, Cat No. A10491-01), 10% fetal bovine serum (Invitrogen, Cat No. 10099141, Lot No. 8172882) containing 100 U/mL Penicillin, 100 μg/mL streptomycin (Invitrogen, Cat No. 15140-122), and 50 uM 2-Mercaptoethanol (Invitrogen, Cat No. 21985023). LPS-EK ultra pure (Invivogen, Cat No. tlrl-peklps) was used to induce IL8 and TNFα production, that was detected in the cell culture supernatant by IL8 HTRF kit (Cisbio, Cat No. 62IL8PEB) and TNFα HTRF kit (Cisbio, Cat No. 62TNFPEB), as per manufacturer instructions. Cells were cultured in 96 well assay plates at 100,000 cells per well, and compounds diluted in final 0.3% DMSO were pre-incubated with cells for 1 hour prior to stimulation with 300 ng/mL LPS. Cytokine production in cell supernatant was measured at 5 hours for TNFα and IL8 production, and for 16 hours for IL8 production and assessment of cell viability.
The compound numbers correspond to the compound numbers in Table 1. […] “NA” stands for “not assayed.”

[2] = 5 hours, read-out: TNFα production IC50
[3] = 16 hours, read-out: IL8 (16 h) production IC50

Compound	IC50 (IRAK4)	IC50 [1, 2]	IC50 [1, 3]
Cc1nc2c(N[C@H]3CC[C@H](N4CCOCC4)CC3)nc(Nc3cnn(C4CCOCC4)c3)nc2s1 [Compound I-25, 2-methyl-N7-((1r,4r)-4-morpholinocyclohexyl)-N5-(1-(tetrahydro-2H-pyran-4-yl)-1H-pyrazol-4-yl)thiazolo[5,4-d]pyrimidine-5,7-diamine]	≤ 1 µM	≤ 0.25 µM	≤ 0.25 µM
CCc1nc2c(N[C@H]3CC[C@H](N4CCC5(CC4)CC5)CC3)nc(Nc3cnn(C4CCOCC4)c3)nc2s1 [Compound I-23, N7-((1r,4r)-4-(6-azaspiro[2.5]octan-6-yl)cyclohexyl)-2-ethyl-N5-(1-(tetrahydro-2H-pyran-4-yl)-1H-pyrazol-4-yl)thiazolo[5,4-d]pyrimidine-5,7-diamine]	≤ 1 µM	0.25 to 0.5 µM	≤ 0.25 µM
CCc1nc2c(N[C@H]3CC[C@H](N4CCOCC4)CC3)nc(Nc3cnn(CC)c3)nc2s1 [Compound I-22, 2-ethyl-N5-(1-ethyl-1H-pyrazol-4-yl)-N7-((1r,4r)-4-morpholino-cyclohexyl)thiazolo[5,4-d]pyrimidine-5,7-diamine]	≤ 1 µM	0.25 to 0.5 µM	≤ 0.25 µM
CCc1nc2c(N[C@H]3CC[C@H](N4CCC5(CC4)COC5)CC3)nc(Nc3cnn(C)c3)nc2s1 [Compound I-13, N7-((1r,4r)-4-(2-oxa-7-azaspiro[3.5]nonan-7-yl)cyclohexyl)-2-ethyl-N5-(1-methyl-1H-pyrazol-4-yl)thiazolo[5,4-d]pyrimidine-5,7-diamine]	≤ 1 µM	≤ 0.25 µM	≤ 0.25 µM
CCc1nc2c(N[C@H]3CC[C@H](N4CCOCC4)CC3)nc(Nc3cnn(CCO)c3)nc2s1 [Compound I-29, 2-(4-((2-ethyl-7-(((1r,4r)-4-morpholinocyclohexyl)-amino)thiazolo[5,4-d]pyrimidin-5-yl)amino)-1H-pyrazol-1-yl)ethan-1-ol]	≤ 1 µM	≥ 0.5 µM	≤ 0.25 µM
CCc1nc2c(N[C@H]3CC[C@H](N4CCOCC4)CC3)nc(Nc3cnn(C(C)C)c3)nc2s1 [Compound I-8, 2-ethyl-N5-(1-isopropyl-1H-pyrazol-4-yl)-N7-((1r,4r)-4-morpholinocyclohexyl)thiazolo[5,4-d]pyrimidine-5,7-diamine]	≤ 1 µM	≤ 0.25 µM	≤ 0.25 µM
CCc1nc2c(N[C@H]3CC[C@H](N4CCOCC4)CC3)nc(Nc3cnn(C4CCC(O)CC4)c3)nc2s1 (some centres unmarked) [Compound I-32, 4-(4-((2-ethyl-7-(((1r,4r)-4-morpholinocyclohexyl)-amino)thiazolo[5,4-d]pyrimidin-5-yl)amino)-1H-pyrazol-1-yl)cyclohexan-1-ol]	≤ 1 µM	≤ 0.25 µM	≤ 0.25 µM
CCc1nc2c(N[C@H]3CC[C@H](N4CCC(O)CC4)CC3)nc(Nc3cnn(C)c3)nc2s1 [Compound I-17, 1-((1r,4r)-4-((2-ethyl-5-((1-methyl-1H-pyrazol-4-yl)amino)-thiazolo[5,4-d]pyrimidin-7-yl)amino)cyclohexyl)piperidin-4-ol]	≤ 1 µM	≤ 0.25 µM	

Next, values leading:

IC50 (IRAK4)	IC50 [1, 2]	IC50 [1, 3]	Compound
≤ 1 µM	≥ 0.5 µM	0.25 to 0.5 µM	Cc1nc2c(N[C@H]3CC[C@H](N4CCOCC4)CC3)nc(Nc3cnn(CCCS(C)(=O)=O)c3)nc2s1 [Compound I-38, 2-methyl-N5-(1-(3-(methylsulfonyl)propyl)-1H-pyrazol-4-yl)-N7-((1r,4r)-4-morpholinocyclohexyl)thiazolo[5,4-d]pyrimidine-5,7-diamine]
≤ 1 µM	≤ 0.25 µM	≤ 0.25 µM	CCc1nc2c(N[C@H]3CC[C@H](N4CCC5(CC4)CC5)CC3)nc(Nc3cnn(CCOCCO)c3)nc2s1 [Compound I-33, 2-(2-(4-((7-(((1r,4r)-4-(6-azaspiro[2.5]octan-6-yl)cyclohexyl)-amino)-2-ethylthiazolo[5,4-d]pyrimidin-5-yl)amino)-1H-pyrazol-1-yl)ethoxy)ethan-1-ol]
≤ 1 µM	0.25 to 0.5 µM	0.25 to 0.5 µM	Cc1nc2c(N[C@H]3CC[C@H](N4CCC5(CC4)CC5)CC3)nc(Nc3cnn(C)c3)nc2s1 [Compound I-39, N7-((1r,4r)-4-(6-azaspiro[2.5]octan-6-yl)cyclohexyl)-2-methyl-N5-(1-methyl-1H-pyrazol-4-yl)thiazolo[5,4-d]pyrimidine-5,7-diamine]
≤ 1 µM	≥ 0.5 µM	≥ 0.5 µM	Cn1cc(Nc2nc(N[C@H]3CC[C@H](N4CCOCC4)CC3)c3nc(CO)sc3n2)cn1 [Compound I-37, (5-((1-methyl-1H-pyrazol-4-yl)amino)-7-(((1r,4r)-4-morpholino-cyclohexyl)amino)thiazolo[5,4-d]pyrimidin-2-yl)methanol]
